In general, pIC50 refers to the IC50 on a negative log10 scale, so that one unit is a factor of ten.

Among the data in patent US9975876B2, “2-pyridyloxy-3-ester-4-ether orexin receptor antagonists” (MERCK SHARP & DOHME CORP., priority 2013, dated 2018) are IC50 values, retold here.

The target of one test is human orexin-2 receptor (Homo sapiens (Human), UniProt O43614). As to the kind of experiment: FLIPR Ca2+ flux assay, orexin-2 receptor antagonism. It is filed as cell-based. Particulars: CHO cells; agonist 70 pM Ala-6,12 human orexin-A; read-out: hOX2R FLIPR IC50. How it is done:
In a typical experiment the OX1 and OX2 receptor antagonistic activity of the compounds of the present invention was determined in accordance with the following experimental method. For intracellular calcium measurements, Chinese hamster ovary (CHO) cells expressing the rat orexin-1 receptor or the human orexin-2 receptor, are grown in Iscove's modified DMEM containing 2 mM L-glutamine, […], 1% hypoxanthine-thymidine supplement, 100 U/ml penicillin, 100 μg/ml streptomycin and 10% heat-inactivated fetal calf serum (FCS). The cells are seeded at 20,000 cells/well into Becton-Dickinson black 384-well clear bottom sterile plates coated with poly-D-lysine. All reagents were from GIBCO-Invitrogen Corp. The seeded plates are incubated overnight at 37° C. and 5% CO2. Ala-6,12 human orexin-A as the agonist is prepared as a 1 mM stock solution in 1% bovine serum albumin (BSA) and diluted in assay buffer (HBSS containing 20 mM HEPES, 0.1% BSA and 2.5 mM probenecid, pH7.4) for use in the assay at a final concentration of 70 pM. Test compounds are prepared as 10 mM stock solution in DMSO, then diluted in 384-well plates, first in DMSO, then assay buffer. On the day of the assay, cells are washed 3 times with 100 μl assay buffer and then incubated for 60 min (37° C., 5% CO2) in 60 μl assay buffer containing 1 μM Fluo-4AM ester, 0.02% pluronic acid, and 1% BSA. The dye loading solution is then aspirated and cells are washed 3 times with 100 μl assay buffer. 30 μl of that same buffer is left in each well. Within the Fluorescent Imaging Plate Reader (FLIPR, Molecular Devices), test compounds are added to the plate in a volume of 25 μl, incubated for 5 min and finally 25 μl of agonist is added. Fluorescence is measured for each well at 1 second intervals for 5 minutes and the height of each fluorescence peak is compared to the height of the fluorescence peak induced by 70 pM Ala-6,12 orexin-A with buffer in place of antagonist. […] The intrinsic orexin receptor antagonist activity of a compound which may be used in the present invention may be determined by these assays.
On the technique in general: Calcium assays in cells follow changes in intracellular calcium, usually with a dye or a luminescent sensor.

Another test addresses hOX1R (Homo sapiens, UniProt O43613). Put plainly: FLIPR Ca2+ flux assay, orexin-1 receptor antagonism. The format is cell-based. The following applies: CHO cells; agonist 70 pM Ala-6,12 human orexin-A.

pIC50: −log10 of the molar value.

human orexin-2 receptor, sequence (O43614 whole entry): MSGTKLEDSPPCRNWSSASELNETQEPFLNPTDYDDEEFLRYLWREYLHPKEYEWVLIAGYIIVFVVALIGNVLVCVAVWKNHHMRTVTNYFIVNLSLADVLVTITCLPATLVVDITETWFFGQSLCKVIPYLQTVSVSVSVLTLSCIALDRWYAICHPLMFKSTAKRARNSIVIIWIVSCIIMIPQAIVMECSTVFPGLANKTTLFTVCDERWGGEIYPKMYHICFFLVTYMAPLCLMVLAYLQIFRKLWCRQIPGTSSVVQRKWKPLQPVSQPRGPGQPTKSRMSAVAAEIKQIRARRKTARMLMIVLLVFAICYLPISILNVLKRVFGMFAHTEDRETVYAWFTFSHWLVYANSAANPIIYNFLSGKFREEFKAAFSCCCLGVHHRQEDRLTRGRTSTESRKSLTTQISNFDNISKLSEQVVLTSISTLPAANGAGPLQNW

Consider `COC(=O)c1c(OC)ccnc1O[C@@H]1CC[C@@H](C)N(C(=O)c2ccccc2-n2ncnn2)C1` [Example 23, Methyl 4-methoxy-2-{[(3R,6R)-6-methyl-1-{[2-(2H-tetrazol-2-yl)phenyl]carbonyl}piperidin-3-yl]oxy}pyridine-3-carboxylate], for which the pIC50 on human orexin-2 receptor was 7.56; at hOX1R, 5.67.
Taken in the same sequence, the figures for `CCOC(=O)c1c(OC)ccnc1O[C@@H]1CC[C@@H](C)N(C(=O)c2ccccc2-n2nccn2)C1` [Example 25, ethyl 4-methoxy-2-{[(3R,6R)-6-methyl-1-{[2-(2H-1,2,3-triazol-2-yl)phenyl]carbonyl}piperidin-3-yl]oxy}pyridine-3-carboxylate] were 7.71 and 6.09.
For `CCOC(=O)c1c(OC)ccnc1O[C@@H]1CC[C@@H](C)N(C(=O)c2cccc(F)c2-n2nccn2)C1` [Example 26], the figures for the pIC50 at human orexin-2 receptor and at hOX1R were 7.40 and 5.55, respectively.
On the same counts, the results for `CCOc1ccnc(O[C@@H]2CC[C@@H](C)N(C(=O)c3ccccc3-n3nccn3)C2)c1C(=O)OC` [Example 27, Methyl 4-ethoxy-2-{[(3R,6R)-6-methyl-1-{[2-(2H-1,2,3-triazol-2-yl)phenyl]carbonyl}piperidin-3-yl]oxy}pyridine-3-carboxylate] are 6.78 and 5.16.
For `CCOC(=O)c1c(OCC)ccnc1O[C@@H]1CC[C@@H](C)N(C(=O)c2ccccc2-n2ncnn2)C1` [Example 28, Ethyl 4-ethoxy-2-{[(3R,6R)-6-methyl-1-{[2-(2H-tetrazol-2-yl)phenyl]carbonyl}piperidin-3-yl]oxy}pyridine-3-carboxylate], the pIC50 is 7.74 at human orexin-2 receptor and 5.38 on hOX1R.
Taken in the same sequence, the figures for `COC(=O)c1c(OC)cccc1O[C@@H]1CC[C@@H](C)N(C(=O)c2ccccc2-n2nccn2)C1` [Example 31, Methyl 2-methoxy-6-{[(3R,6R)-6-methyl-1-{[2-(2H-1,2,3-triazol-2-yl)phenyl]carbonyl}piperidin-3-yl]oxy}benzoate] were 7.60 and below 5.00.
Taken in the same sequence, the figures for `COC(=O)c1c(OC)cccc1O[C@@H]1CC[C@@H](C)N(C(=O)c2ccsc2-n2nccn2)C1` [Example 32, methyl 2-methoxy-6-{[(3R,6R)-6-methyl-1-{[2-(2H-1,2,3-triazol-2-yl)thiophen-3-yl]carbonyl}piperidin-3-yl]oxy}benzoate] were 7.21 and below 5.00.
On the same counts, the results for `COC(=O)c1c(OC)cccc1O[C@@H]1CC[C@@H](C)N(C(=O)c2ccccc2-n2ncnn2)C1` [Example 33, methyl 2-methoxy-6-{[(3R,6R)-6-methyl-1-{[2-(2H-tetrazol-2-yl)phenyl]carbonyl}piperidin-3-yl]oxy}bcnzoate] are 6.69 and below 5.00.
As for `COC(=O)c1c(OC)cccc1O[C@@H]1CC[C@@H](C)N(C(=O)c2ccsc2-c2ncccn2)C1` [Example 34, methyl 2-methoxy-6-({(3R,6R)-6-methyl-1-[(2-pyrimidin-2-ylthiophen-3-yl)carbonyl]piperidin-3-yl}oxy)benzoate], the pIC50 on human orexin-2 receptor was 7.38; at hOX1R it was below 5.00.
Taken in the same sequence, the figures for `COC(=O)c1c(OC)cccc1O[C@@H]1CC[C@@H](C)N(C(=O)c2ccccc2-c2ncccn2)C1` [Example 35, methyl 2-methoxy-6-({(3R,6R)-6-methyl-1-[(2-pyrimidin-2-ylphenyl)carbonyl]piperidin-3-yl}oxy)benzoate] were 7.46 and below 5.00.
